# Measured values taken from patent US20130014428A1, “METHODS OF MONITORING AND CONTROLLING THE WALNUT TWIG BEETLE, PITYOPHTHORUS JUGLANDIS” (The United States of America as Represented by the …, priority 2011, published 2013).
# Key:
# [1] = system: WTB; assay: Example 2 Field Test 3: X and racemic trans-pityol; format: in vivo, Pityophthorus juglandis; conditions: 4-unit Lindgren funnel traps
# Method: Finally, a flight bioassay of the effect of the compound racemic trans-“pityol” [2-(1-hydroxy-1-methylethyl)-5-methyltetrahydrofuran] was conducted in late summer/early fall at Wolfskill Experimental Orchards. Pityol is a component of the aggregation pheromone of conifer-infesting Pityophthorus species. The response of WTB to racemic trans-pityol (formulated in a polyvinylchloride plastic bubble cap release device, 40 mg load, 0.2 mg/d release rate at 20° C., product #300000272, Contech Enterprises) and pityol in combination with 3-methyl-2-buten-1-ol (release rate 15-80 mg/d, LDPE plastic pouch Contech) was tested (Table 3, Field Test 3). The four treatments were replicated in three spatial blocks and the treatments were re-randomized among the four trap stations in a block each time the traps were emptied (nearly every day).
# (§1) Statistical Analyses. Analysis of treatment effects for the pouch vs. bottle experiment was done by using a sign test. (See Zar, J. H. 2010. Biostatistical Analysis. 5th ed. Pearson Prentice Hall, Englewood Cliffs, N.J.) The other four experiments were analyzed for treatment effect by using Friedman's non-parametric analysis of variance. Id. In all experiments, males and females were analyzed separately. All treatments within experiments yielding a significant treatment effect were compared by using an a posteriori Nemenyi test with experimentwise α=0.05. Id. For all experiments, differences among proportions of female WTB responding to treatments were analyzed by comparing 95% confidence intervals determined with the Clopper-Pearson method. Id.
# [2] = system: P. juglandis; assay: GC-EAD (electroantennal detection) of volatile extract; design: species or system Pityophthorus juglandis; conditions: extract of J. hindsii with male and female P. juglandis feeding 45 hr
# Method: Gas Chromatography-Electroantennal Detection (GC-EAD). GC-EAD analysis was performed on the extract of walnut (Juglans hindsii) with male and female P. juglandis feeding for 45 hr (pentane extract (7)). The sample was analyzed with an HP5890 GC with the following conditions: DB-5 column 30 m×0.32, oven 50° C. for 1 min, temperature programmed at 20° C./min to a final temperature of 280° C.
# [3] = system: WTB; assay: Trap height: clear plexiglass panel traps baited with X; format: in vivo, Pityophthorus juglandis; conditions: 5 mg/d, 15 ml load
# Method: Effect of Trap Height on Trap Catch. The flight response of WTB to clear plexiglass panel traps coated with Stikem Special (Seabright Labs, Emeryville, Calif.) and baited with 3-methyl-2-buten-1-ol (5 mg/d, 15 ml load, polyethylene bottle) located at three heights (2, 3, and 4 m above the forest floor) was tested. The traps were placed in the crowns of J. hindsii located in a native riparian stand at Shadow Cliffs Regional Park, Alameda Co., Calif. from early to mid-spring. Both sides of a single 23 cm×14 cm sheet of clear plexiglass were covered with Stikem Special adhesive and the sheet was hung from string at each of the 3 heights from a single J. hindsii branch. The aggregation pheromone bait was hung immediately above each trap. Each group of three traps was assigned a unique position within the stand and treated as a block in a completely randomized block design (N=22). Traps within a block were all collected on the same day; blocks were collected after 2 to 7 days (after periodic flights of WTB).
# (§2) Statistical Analyses. Analyses of treatment effects for the tests of trap type were performed by using Friedman's non-parametric analysis of variance or a sign test, depending on the number of treatments. (See Zar, J. H. 2010. Biostatistical Analysis. 5th ed. Pearson Prentice Hall, Englewood Cliffs, N.J.) Analysis of treatment effects for the Rain•X experiment was performed by using a Wilcoxon paired sample test. Id. Multiple comparisons for experiments with more than two treatments were performed with an a posteriori Nemenyi test with experimentwise α=0.05. Id. In all cases, male and female WTB were analyzed separately. Proportions of female WTB responding to treatments were calculated and 95% confidence intervals determined by using the Clopper-Pearson method. Id.
# [4] = system: WTB; assay: Trap type: four Lindgren funnel traps and intercept panel trap baited with X; format: in vivo, Pityophthorus juglandis; conditions: for trap catches, female WTB / trap catches, male WTB: 15-80 mg/d
# Method: In another set of experiments, the flight response of WTB to four types of Lindgren funnel traps (Contech) and an intercept panel trap (Alpha Scents Inc., Portland Oreg., product # AST0031) was tested at Wolfskill Experimental Orchards in mid-summer. Each trap was baited with the commercial formulation of 3-methyl-2-buten-1-ol (15-80 mg/d, Contech) hung inside the middle funnel of each funnel trap or in a recess in the middle of the cross vane panels of the panel trap. Each trap cup was filled with propylene glycol as described above and the traps were suspended from the top of a 3 m metal conduit pole. Three blocks of traps were installed and trap catches were collected daily when the flight activity was high. The five treatments were re-randomized among the five trap stations within each of the three blocks each time that the traps were emptied.
# as §2
# [5] = system: WTB; assay: Example 2 Field Test 2: X in combination with DMNT, vittatol, rose oxides; format: in vivo, Pityophthorus juglandis; design: trap catches, male WTB / trap catches, female WTB: dose or concentration left out as unconfirmed; conditions: 4-unit Lindgren funnel traps
# Method: At the same time and location, the flight response of WTB to 3-methyl-2-buten-1-ol ([…], Contech) was tested in combination with each of the following compounds: DMNT [4,8-dimethyl-1,3(E),7-nonatriene], vittatol [(3R,6R)-3-hydroxy-2,2,6-trimethyltetrahydropyran], (−)- and (+)-rose oxide [tetrahydro-4-methyl-2-(2-methylpropenyl)-2H-pyran] (Table 3, Field Test 2). DMNT and vittatol were synthesized and provided by Prof. Wittko Francke, University of Hamburg, Institute of Organic Chemistry; whereas (−)-rose oxide (>99% chemical purity, product #83917-1 ML, Fluka, Milwaukee, Wis.) and (+)-rose oxide (>99% chemical purity, product #83915-1 ML, Fluka) were purchased. The compounds besides 3-methyl-2-buten-1-ol were released from closed 400 μl Eppendorf microcentrifuge tubes (Evergreen) with loads of approximately 50 μl (DMNT); 20 mg (vittatol, solid at room temperature); and approx. 200 μl each of (−)-and (+)-rose oxide. The six treatments were replicated in three spatial blocks and the treatments were re-randomized among the six trap stations in a block each time the traps were emptied (nearly every day).
# as §1
# [6] = X 15-80 mg/d, pityol 0.2 mg/d, N=93
smiles,measurement,setting,value
"CC(C)=CCO [X, 3-methyl-2-buten-1-ol]",proportion of females responding,[1],0.80
same,"trap catches, female WTB",[1]; [6],2100
same,"trap catches, male WTB",[1]; [6],539
same,antennal activity by GC-EAD,[2],antenally active
same,proportion of females responding,[3]; clear plexiglass panel trap at 2 m,0.68
same,proportion of females responding,[3]; clear plexiglass panel trap at 3 m,0.64
same,proportion of females responding,[3]; clear plexiglass panel trap at 4 m,0.72
same,"trap catches, female WTB",[4]; 4-unit Lindgren funnel trap,231
same,"trap catches, male WTB",[4]; 4-unit Lindgren funnel trap,72
same,proportion of females responding,[4]; 4-unit trap,0.76
same,proportion of females responding,[4]; 8-unit trap,0.76
same,"trap catches, female WTB",[4]; 8-unit trap,634
same,"trap catches, male WTB",[4]; 8-unit trap,202
same,proportion of females responding,[4]; 12-unit trap,0.72
same,"trap catches, female WTB",[4]; 12-unit trap,892
same,"trap catches, male WTB",[4]; 12-unit trap,352
same,proportion of females responding,[4]; 16-unit trap,0.73
same,"trap catches, female WTB",[4]; 16-unit trap,618
same,"trap catches, male WTB",[4]; 16-unit trap,233
same,"trap catches, female WTB",[4]; intercept panel trap,296
same,"trap catches, male WTB",[4]; intercept panel trap,128
same,proportion of females responding,[4]; panel trap,0.70
same,proportion of females responding,[5],0.70
same,"trap catches, female WTB",[5]; N=42,100
same,"trap catches, male WTB",[5]; N=42,43
